Laboratory results published in patent publication US20090170869A1, “PIPERAZINE DERIVATIVE HAVING AFFINITY FOR THE HISTAMINE H3 RECEPTOR” (priority 2007, published 2009).

What was measured:
[1] = target: H3 receptor (Sus scrofa, UniProt A0A287B9V8); test: Pig-PET study with [11C]GSK189254: pig brain H3 receptor occupancy over time and kon-koff limited model; conditions: 50 micrograms/kg i.v.; for Measured H3 receptor occupancy @ 10 min: 10 minutes post administration; for Measured H3 receptor occupancy @ 2.5 h: 2.5 hours post administration; for Measured H3 receptor occupancy @ 6 h: 6 hours post administration; for Kd: Kd (koff/kon)
[2] = system: Sprague Dawley rats; test: Toxicity Study 2: 7-day oral dose range-finding study in Sprague Dawley rats; type: in vivo, rat
Procedure: Three male rats and three female rats were added at 600 mg/kg/day and 3 female rats were added at 300 mg/kg/day for toxicokinetic evaluation.
The following endpoints/parameters were evaluated for toxicology animals: clinical observations, body weights, food consumption, selected haematology, selected clinical chemistry, liver weights, and selected macroscopic and microscopic observations. Toxicokinetic evaluation was performed on samples collected on Day 1 (300 and 600 mg/kg/day dosing) and Day 7 (300 mg/kg/day dosing only).

[3] = target: T1, brain histamine H3 receptor (Rattus norvegicus, UniProt Q9QYN8); test: Rat ex vivo binding studies - rat brain histamine H3 receptor occupancy ([3H]-R-α-methylhistamine); type: in vivo; conditions: for inhibition of [3H]-R-α-methylhistamine specific binding to the H3 receptor (surrogate for rat brain H3 receptor occupancy): 10 mg/kg oral; for specific binding of [3H]-R-α-methylhistamine to the H3 receptor: rats n=3, 10 mg/kg oral, mean ± SEM
T1 construct: from tissue; host or cells: cerebral cortex homogenate of adult male Lister hooded rats
Procedure: Ex vivo binding studies were carried out to determine brain histamine H3 receptor occupancy in rats at certain time points after oral administration of a test compound.
Adult male rats (Lister hooded 200-250 g, Charles River, UK) received vehicle (1% w/v aqueous methylcellulose) (control) or the test compound (10 mg/kg) by oral gavage (n=3 per group) and were sacrificed 1 or 4 hours following oral dosing. The 1 hour and 4 hour studies were not necessarily done on the same day. Terminal blood samples were collected and brains rapidly removed. Cerebral cortex tissue was dissected from half of each brain for ex vivo binding; the other half brain can be used for pharmacokinetic analysis of brain concentrations of each compound. All dissected tissue samples were snap-frozen in liquid nitrogen, and stored at −80° C. until use. The tissues were rapidly thawed and homogenised in approximately 30 volumes of ice cold assay reaction buffer. The assay reaction buffer contained 50 mM Tris-HCl (made up using Trizma pre-set crystals pH 7.7 @25° C., Sigma cat. No. T8068-250G) and 5 mM EDTA, with a final buffer pH of 7.2 to 7.8, usually about 7.4. The crude homogenate (600-800 μg/well) was then used to measure H3 receptor binding using [^3H]-R-α-methylhistamine as radioligand. Assays measuring total binding of [^3H]-R-α-methylhistamine consisted of 50 μl assay reaction buffer, 400 μl of homogenate (corresponding to 600-800 μg/well) and 50 μl of 2 nM R(−)α-Methyl[imidazole-2,5(n)-3H]histamine dihydrochloride ([^3H]-R-α-methylhistamine; specific activity, 24 Ci mmol^−1, Amersham Biosciences, catalogue no. TRK1017). Incubations with [^3H]-R-α-methylhistamine were for 45 min at 30° C. Non-specific binding of [^3H]-R-α-methylhistamine was determined in parallel using the same assay except that 50 μl of 10 μM imetit (an H3 receptor agonist, e.g. available from Tocris) was used instead of the 50 μl of assay reaction buffer. The experiments were terminated by rapid filtration through Whatman GF/B filters (pre-soaked in 0.3% v/v polyethyleneimine (PEI)), and then the filters were washed through with 4×5 ml of ice cold harvesting buffer. The harvesting buffer contained 50 mM Tris-HCl (from Trizma pre-set crystals pH 7.7 @ 25° C.) and 5 mM MgCl2, with a final buffer pH of 7.2 to 7.8, usually about 7.4. Filters were dried and added to vials each containing 4 ml Ultima Gold MV scintillation fluid (Hewlett Packard) and radioactivity determined by liquid scintillation spectrometry using a Packard Tri-Carb 2500TR liquid scintillation counter.
Specific binding of [^3H]-R-α-methylhistamine to the H3 receptor was determined by the subtraction of the value obtained for non-specific binding from the value obtained for total binding.
Protein concentrations were determined using the Bradford assay method (Bio-Rad
Protein Assay Dye Reagent Concentrate, catalogue no. 500-0006; from Bio-Rad Laboratories GmbH, Heidemannstrasse 164, 80939 Muenchen, Germany; or from Bio-Rad, York, UK) with bovine serum albumin as a standard. Specific radioactivity in the samples was corrected for protein (i.e. per microgram of protein).
The specific binding of [^3H]-R-α-methylhistamine to the H3 receptor is expressed as a mean (n=3 rats)±SEM (standard error of the mean), as a percentage of vehicle-treated control animals. Data is also expressed as inhibition of [^3H]-R-α-methylhistamine specific binding to the H3 receptor, as a surrogate measure for H3 receptor occupancy by the test compound, calculated as 100% minus the % mean specific binding of [^3H]-R-α-methylhistamine to the H3 receptor.

[4] = system: male Sprague Dawley rats; test: Toxicity Study 1: 7-day oral repeat-dose study in male Sprague Dawley rats; type: in vivo, rat; conditions: for tolerability: male rats
Procedure: Three male rats were added at each non-zero dose level for toxicokinetic evaluation. All doses and concentrations, including analyte concentration in plasma, are expressed in terms of the parent “free base” compound.
The following endpoints/parameters were evaluated for toxicology animals: clinical observations, body weights, food consumption measurements, selected haematology and selected clinical chemistry results, liver weights, selected macroscopic and microscopic observations, and selected hepatic gene expression analysis. Toxicokinetic evaluation (serial profiling) was performed on samples collected from satellite animals on Days 1 and 7. For male rats dosed at 30 or 100 mg/kg/day, histopathology observations carried out were on kidneys, mesentery and mandibular lymph node only. For male rats dosed at 0 mg/kg/day (control) and 300 mg/kg/day, histopathology observations carried out were on adrenals, brain, heart, kidneys, liver, lung, mandibular lymph node, mesentery, stomach, testes, and thymus (except that mandibular lymph node observations were for 0 mg/kg/day dosed rats only).

[5] = Plasma clearance in the pig-PET study; type: in vivo; conditions: Yorkshire-Landrace, iv, 50 ug/kg, 50 micrograms/kg i.v.
[6] = mean ± standard deviation, n=3 pigs
[7] = rat, in vivo, po, 300 mg/kg/day

Chain of H3 receptor (A0A287B9V8 1-448): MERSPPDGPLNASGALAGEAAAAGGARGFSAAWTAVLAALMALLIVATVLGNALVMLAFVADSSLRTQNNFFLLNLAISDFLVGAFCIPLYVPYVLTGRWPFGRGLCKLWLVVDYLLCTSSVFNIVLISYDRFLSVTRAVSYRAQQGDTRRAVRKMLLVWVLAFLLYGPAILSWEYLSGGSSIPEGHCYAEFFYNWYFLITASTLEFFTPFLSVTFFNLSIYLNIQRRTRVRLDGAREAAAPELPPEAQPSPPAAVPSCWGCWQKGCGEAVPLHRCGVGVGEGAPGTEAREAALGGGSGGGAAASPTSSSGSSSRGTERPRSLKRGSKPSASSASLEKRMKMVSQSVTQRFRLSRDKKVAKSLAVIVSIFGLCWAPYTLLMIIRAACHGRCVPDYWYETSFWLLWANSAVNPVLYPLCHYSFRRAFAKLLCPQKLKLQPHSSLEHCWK
T1 sequence (Q9QYN8 whole entry): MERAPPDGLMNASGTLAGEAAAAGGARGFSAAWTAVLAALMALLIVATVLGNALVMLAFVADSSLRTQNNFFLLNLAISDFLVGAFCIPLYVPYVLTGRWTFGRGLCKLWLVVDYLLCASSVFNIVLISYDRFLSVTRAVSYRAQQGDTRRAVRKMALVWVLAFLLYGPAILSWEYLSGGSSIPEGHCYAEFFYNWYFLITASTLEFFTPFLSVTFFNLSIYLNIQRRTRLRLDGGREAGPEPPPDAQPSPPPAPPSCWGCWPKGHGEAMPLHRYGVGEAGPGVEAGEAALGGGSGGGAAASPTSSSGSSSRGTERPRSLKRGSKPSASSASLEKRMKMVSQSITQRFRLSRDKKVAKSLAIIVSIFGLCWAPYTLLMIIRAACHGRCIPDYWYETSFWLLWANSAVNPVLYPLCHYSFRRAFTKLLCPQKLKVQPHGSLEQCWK

CC(C)N1CCN(C(=O)c2ccc(OC3CCOCC3)cc2)CC1.Cl [Example E1]
reduction in pig brain H3 receptor occupancy as compared to salt B ([1]; n=3 pigs, preliminary measurements): generally faster reduction
Measured H3 receptor occupancy @ 10 min [1, 6]: 58% ± 4%
Measured H3 receptor occupancy @ 10 min ([1]; pig 1): 61%
Measured H3 receptor occupancy @ 10 min ([1]; pig 2): 54%
Measured H3 receptor occupancy @ 10 min ([1]; pig 3): 58%
Measured H3 receptor occupancy @ 2.5 h [1, 6]: 30% ± 11%
Measured H3 receptor occupancy @ 2.5 h ([1]; pig 1): 43%
Measured H3 receptor occupancy @ 2.5 h ([1]; pig 2): 24%
Measured H3 receptor occupancy @ 2.5 h ([1]; pig 3): 22%
Measured H3 receptor occupancy @ 6 h [1, 6]: 14% ± 14%
Measured H3 receptor occupancy @ 6 h ([1]; pig 1): 30%
Measured H3 receptor occupancy @ 6 h ([1]; pig 2): 7%
Measured H3 receptor occupancy @ 6 h ([1]; pig 3): 5%
Kd ([1]; average model (from average plasma data and average occupancy)): 9.14 nM
Kd ([1]; mean of pigs 1-3): 9.08 nM
Kd ([1]; pig 1, in vivo PK/RO model): 4.47 nM
Kd ([1]; pig 2, in vivo PK/RO model): 9.35 nM
Kd ([1]; pig 3, in vivo PK/RO model): 13.4 nM
tolerability ([2]; conclusion from Toxicity Studies 1 and 2: male and female rats, 7 days oral, doses up to 300 mg/kg/day): well tolerated or moderately well tolerated
tolerability ([2]; female rats, 300 mg/kg/day oral for 7 days (measured as free base)): moderately well tolerated
tolerability ([2]; male or female rats, 600 mg/kg/day oral (only 2 days)): not tolerated
certain haematology and other clinical chemistry parameters [2, 7]: increased
clinical signs [2, 7]: chewing movements, rubbing chin on the cage floor, and certain other clinical signs
glandular dilation of the fundic region of the stomach [2, 7]: of minimal severity, was observed in most female rats
inhibition of [3H]-R-α-methylhistamine specific binding to the H3 receptor (surrogate for rat brain H3 receptor occupancy) ([3]; 1 hour after dosing): about 60%
inhibition of [3H]-R-α-methylhistamine specific binding to the H3 receptor (surrogate for rat brain H3 receptor occupancy) ([3]; 4 hours after dosing): about 16%
specific binding of [3H]-R-α-methylhistamine to the H3 receptor ([3]; sacrificed 1 hour after dosing): 40%+2%
specific binding of [3H]-R-α-methylhistamine to the H3 receptor ([3]; sacrificed 4 hours after dosing): 84%+6%
tolerability ([4]; 300 mg/kg/day oral for 7 days (measured as free base)): moderately well tolerated
tolerability ([4]; 30 or 100 mg/kg/day oral for 7 days (measured as free base)): well tolerated
food consumption [4, 7]: ca. 0.80 × pretreatment
periarterial inflammatory cell infiltrate in the hilar region of the kidneys [4, 7]: minimal in severity, was noted in the hilar region of the kidneys of all four male rats
clearance ([5]; average model (from average plasma data)): 38.3 mL/min
clearance ([5]; mean of pigs 1-3): 41.7 mL/min
clearance ([5]; pig 1): 48.3 mL/min
clearance ([5]; pig 2): 50 mL/min
clearance ([5]; pig 3): 30 mL/min
